Data on two molecules can be found in patent US8932610B2, “Aqueous clear solutions of fluocinolone acetonide for treatment of otic inflammation” (Laboratorios Salvat, S.A., priority 2010, dated 2015).

SMILES strings stand for the structures. Counter-ions that a name gives are not always drawn.

Data set [1] is described as follows: Concentration of active ingredient before and after filtration through 0.22 μm filter. The data set is classed as physicochemical.
For data set [2] the following is noted: cited from earlier work.
Setting [3] is: Batch 1, after filtration (0.22 μm filter).
The mark [4] stands for this setting: Batch 1, before filtration (0.22 μm filter).
The mark [5] stands for this setting: Batch 2, after filtration (0.22 μm filter).
Setting [6] is: Batch 2, before filtration (0.22 μm filter).

For `O=C(O)c1cn(C2CC2)c2cc(N3CCNCC3)c(F)cc2c1=O` [Ciprofloxacin HCl], the “% of theoretical” value in data set [1] (setting [3]) is recorded as 97.7%; in data set [1] (setting [4]), 98.0%; in data set [1] (setting [5]), 98.0%; in data set [1] (setting [6]), 98.0%. Further, the Concentration in data set [1] (setting [3]) worked out at 0.341%; in data set [1] (setting [4]), 0.342%; in data set [1] (setting [5]), 0.342%; in data set [1] (setting [6]), 0.342%.

Regarding `CC1(C)O[C@@H]2C[C@H]3[C@@H]4C[C@H](F)C5=CC(=O)C=C[C@]5(C)[C@@]4(F)[C@@H](O)C[C@]3(C)[C@]2(C(=O)CO)O1` [Fluocinolone Acetonide], the Solubility in water entry in data set [2] is listed as “virtually insoluble in water”. Further, the “% of theoretical” value in data set [1] (setting [3]), in data set [1] (setting [4]), in data set [1] (setting [5]) and in data set [1] (setting [6]) was 100.0% in each case. Besides, the Concentration in data set [1] (setting [3]), in data set [1] (setting [4]), in data set [1] (setting [5]) and in data set [1] (setting [6]) was 0.025% in each case.
